Test results taken from patent publication US20020197653A1, “System for detecting reporter gene expression” (priority 2001, published 2002).

Tested on: NOS gene under the control of the Gal10 promoter (iNOS)
Test: Small-molecule-induced expression of the NOS reporter gene in yeast, detected by bead-bound fluorescein-based NO sensor
Format: cell-based
Conditions: yeast culture in 96-well plates, galactose final concentration 100 mM, TENTAGEL sensor beads, fluorescent microscope with CCD camera
Protocol: The lactone function of the sensor is effectively aminolysed at room temperature over 48 hours. The apparent loading achieved was about 10% (0.03 mmol/g), although it is possible that much lower loading was in fact achieved.
We have also obtained a yeast strain developed by Mansuy et al (Sari et al. Biochemistry 35(22):7204-7213, June 1996; incorporated herein by reference) in which transcription of the NOS gene is under the control of the Gal10 promoter and is therefore inducible (and is referred to as iNOS). We grew the yeast cells in glucose media (SGI medium containing 7 g/L yeast nitrogen base without amino acids, 1 g/L casamino acids, 20 g/L glucose, and 50 mg/L tryptophan, at 30 ° C.) so that expression of the iNOS gene was repressed. The cells were harvested and washed with medium lacking any sugar (7 g/L yeast nitrogen base without amino acids, 1 g/L casamino acids and 50 mg/L tryptophan), were resuspended in the same sugar-free medium, and were distributed into 96-well plates.
The TENTAGEL beads containing sensor were washed with CH2Cl2, THF, DMF, i-PrOH, MeOH, EtOH, and deionized water, and were dried. 10 μl of sensor beads in sugar-free medium were added to wells containing 170 μl of yeast culture (20-30 beads per well). […]

O=C[C@H](O)[C@@H](O)[C@@H](O)[C@H](O)CO [galactose]
color change of NO sensor beads exposed to induced cells (iNOS reporter expression): distinct color change (green ->yellow)
